Values quoted from earlier work in PMC6311893, “Computational prediction of plasma protein binding of cyclic peptides from small molecule experimental data using sparse modeling techniques” (BMC Bioinformatics, 2018).

system: plasma protein; settings: cited from earlier work

Row | SMILES | PPB (fb)
1 | Nc1ccc(C(=O)O)c(O)c1 [4-aminosalicylic acid] | 0.62

same assay, conditions: fraction bound to plasma protein; small molecule dataset, sheet 1-SM (Set Dte = test, Dtr = training); ref Ingle et al.; cited from earlier work

Row | SMILES | PPB (fb)
2 | CCCc1oc(CCC(=O)O)c(C(=O)O)c1C | 0.99
3 | O=C1CCC(Cc2ccc(O)c(O)c2)O1 (stereo not drawn) | 0.35
4 | COc1ccc(O)cc1C(C)(C)C [2-butyl-4-hydroxyanisole] | 0.85
5 | O=C(O)c1cn(-c2cccc(F)c2)c2cc(N3CCNCC3)c(F)cc2c1=O [2b(m-F)] | 0.51
6 | O=C(O)c1cn(-c2ccc(F)cc2)c2cc(N3CCNCC3)c(F)cc2c1=O [2c(p-F)] | 0.31
7 | O=C(O)c1cn(-c2ccccc2C(F)(F)F)c2cc(N3CCNCC3)c(F)cc2c1=O [3a(o-CF3)] | 0.38
8 | O=C(O)c1cn(-c2cccc(C(F)(F)F)c2)c2cc(N3CCNCC3)c(F)cc2c1=O [3b(m-CF3)] | 0.62
9 | O=C(O)c1cn(-c2ccc(C(F)(F)F)cc2)c2cc(N3CCNCC3)c(F)cc2c1=O [3c(p-CF3)] | 0.42
10 | Cc1ccccc1-n1cc(C(=O)O)c(=O)c2cc(F)c(N3CCNCC3)cc21 [4a(o-CH3)] | 0.37
11 | COc1ccccc1-n1cc(C(=O)O)c(=O)c2cc(F)c(N3CCNCC3)cc21 [5a(o-OCH3)] | 0.29
12 | COc1cccc(-n2cc(C(=O)O)c(=O)c3cc(F)c(N4CCNCC4)cc32)c1 [5b(m-OCH3)] | 0.35
13 | COc1cccc(-n2cc(C(=O)O)c(=O)c3cc(F)c(N4CCN(C)CC4)cc32)c1 [5ba(m-OCH3__N-CH3)] | 0.54
14 | COc1ccc(-n2cc(C(=O)O)c(=O)c3cc(F)c(N4CCNCC4)cc32)cc1 [5c(p-OCH3)] | 0.31
15 | COc1ccc(-n2cc(C(=O)O)c(=O)c3cc(F)c(N4CCN(C)CC4)cc32)cc1 [5ca (p-OCH3__N-CH3)] | 0.43
16 | CCN1CCN(c2cc3c(cc2F)c(=O)c(C(=O)O)cn3-c2ccc(OC)cc2)CC1 [5cb (p-OCH3__N-C2H5)] | 0.51
17 | CCCN1CCN(c2cc3c(cc2F)c(=O)c(C(=O)O)cn3-c2ccc(OC)cc2)CC1 [5cc (p-OCH3__ N- C3H7] | 0.54

Row | SMILES | PPB (fb)
18 | O=C(O)c1cn(-c2cccc([N+](=O)[O-])c2)c2cc(N3CCNCC3)c(F)cc2c1=O [7b(m-NO2)] | 0.66
19 | O=C(O)c1cn(-c2ccc([N+](=O)[O-])cc2)c2cc(N3CCNCC3)c(F)cc2c1=O [7c(p-NO2)] | 0.3
20 | O=C(O)c1cn(-c2cccc(O)c2)c2cc(N3CCNCC3)c(F)cc2c1=O [8b(m-OH)] | 0.35
21 | O=C(O)c1cn(-c2ccc(O)cc2)c2cc(N3CCNCC3)c(F)cc2c1=O [8c(p-OH)] | 0.35
22 | Cc1nc2n(c(=O)c1CCN1CCC(c3noc4cc(F)ccc34)CC1)CCCC2O (stereo not drawn) [9-Hydroxyrisperidone] | 0.77
23 | NC(=O)N1c2ccccc2CC(O)c2ccccc21 (stereo not drawn) [10-hydroxycarbazepine] | 0.62
24 | CC12CCC3c4ccc(O)cc4CCC3C1CCC2O (stereo not drawn) [17-a-estradiol] | 0.98
25 | COC1/C=C/OC2(C)Oc3c(C)c(O)c4c(O)c(c(/C=N/N5CCN(C6CCCC6)CC5)c(O)c4c3C2=O)NC(=O)/C(C)=C\C=C\C(C)C(O)C(C)C(O)C(C)C(O)C1C (stereo not drawn) [25-desacetylrifapentine] | 0.98
26 | CN(C)CCC=C1c2ccccc2CCc2ccccc21 [Amitriptyline] | 0.94
27 | COC(=O)N[C@H](C(=O)N[C@@H](Cc1ccccc1)[C@@H](O)CN(Cc1ccc(-c2ccccn2)cc1)NC(=O)[C@@H](NC(=O)OC)C(C)(C)C)C(C)(C)C [Atazanavir] | 0.86
28 | O=C(O)CN1C(=O)[C@@H](N[C@@H](CCc2ccccc2)C(=O)O)CCc2ccccc21 [Benazeprilat] | 0.95
29 | COc1ccc(CCNCC(O)COc2cccc(C)c2)cc1OC (stereo not drawn) [Bevantolol] | 0.97
30 | C=C(c1ccc(C(=O)O)cc1)c1cc2c(cc1C)C(C)(C)CCC2(C)C [Bexarotene] | 0.99
31 | CN(C)CCN(C)N1C=C(c2ccccc2)C2C=CC=CC21 (stereo not drawn) [Binedaline] | 0.96
32 | CC(C)NCC(O)COc1ccc(COCCOC(C)C)cc1 (stereo not drawn) [Bisoprolol] | 0.32

same assay, conditions: fraction bound to plasma protein; small molecule dataset, sheet 1-SM, Set Dtr; ref Ingle et al.; cited from earlier work

Row | SMILES | PPB (fb)
33 | Nc1nc(NC2CC2)c2ncn([C@H]3C=C[C@@H](CO)C3)c2n1 [Abacavir] | 0.5
34 | CCCC(=O)Nc1ccc(OCC(O)CNC(C)C)c(C(C)=O)c1 (stereo not drawn) [Acebutolol] | 0.24
35 | CCN(CC)CCNC(=O)c1ccc(NC(C)=O)cc1 [Acecainide (N-acetylprocainamide)] | 0.1
36 | CC(=O)Nc1nnc(S(N)(=O)=O)s1 [Acetazolamide] | 0.92
37 | CC(=O)NC(CS)C(=O)O (stereo not drawn) [Acetylcysteine__ N-] | 0.83
38 | Nc1ncnc2c1ncn2CCOCP(=O)(O)O [Adefovir] | 0.04
39 | CC(C)(C)NCC(O)c1ccc(O)c(CO)c1 (stereo not drawn) [Albuterol (salbutamol)] | 0.09
40 | Oc1ncnc2[nH]ncc12 [Allopurinol] | 0.02
41 | CN(C)CCc1c[nH]c2ccc(CS(=O)(=O)N3CCCC3)cc12 [Almotriptan] | 0.37
42 | Cc1[nH]cnc1CN1CCc2c(c3ccccc3n2C)C1=O [Alosetron] | 0.72
43 | C=CCc1ccccc1OCC(O)CNC(C)C (stereo not drawn) [Alprenolol] | 0.81
44 | NCC[C@H](O)C(=O)N[C@@H]1C[C@H](N)[C@@H](O[C@H]2O[C@H](CN)[C@@H](O)[C@H](O)[C@H]2O)[C@H](O)[C@H]1O[C@H]1O[C@H](CO)[C@@H](O)[C@H](N)[C@H]1O [Amikacin] | 0.09
45 | NCCCCCC(=O)O [Aminohexanoic acid] | 0.08
46 | Nc1ccc(O)c(C(=O)O)c1 [Aminosalicylic acid__ 5-] | 0.61
47 | CC1(C)S[C@@H]2[C@H](NC(=O)[C@H](N)c3ccc(O)cc3)C(=O)N2[C@H]1C(=O)O [Amoxicillin] | 0.17
48 | Nc1cc(-c2ccncc2)c[nH]c1=O [Amrinone] | 0.11
49 | COc1cc(NS(C)(=O)=O)ccc1Nc1c2ccccc2nc2ccccc12 [Amsacrine] | 0.98

Row | SMILES | PPB (fb)
50 | CN1CCc2cccc3c2[C@H]1Cc1ccc(O)c(O)c1-3 [Apomorphine] | 0.94
51 | C[C@@H](O[C@H]1OCCN(Cc2n[nH]c(=O)[nH]2)[C@H]1c1ccc(F)cc1)c1cc(C(F)(F)F)cc(C(F)(F)F)c1 [Aprepitant] | 0.95
52 | O=C1CCc2ccc(OCCCCN3CCN(c4cccc(Cl)c4Cl)CC3)cc2N1 [Aripiprazole] | 0.99
53 | C[C@H]1[C@H](OC(=O)CCC(=O)O)O[C@@H]2O[C@@]3(C)CC[C@H]4[C@H](C)CC[C@@H]1[C@@]24OO3 [Artesunate] | 0.75
54 | CC(=O)Oc1ccccc1C(=O)O [Aspirin] | 0.43
55 | CNCC[C@@H](Oc1ccccc1C)c1ccccc1 [Atomoxetine] | 0.97
56 | CN1CCCC(n2nc(Cc3ccc(Cl)cc3)c3ccccc3c2=O)CC1 (stereo not drawn) [Azelastine] | 0.85
57 | CN1CCN(CCCCN2C(=O)CN(/N=C/c3ccc(-c4ccc(Cl)cc4)o3)C2=O)CC1 [Azimilide] | 0.94
58 | CC[C@H]1OC(=O)[C@H](C)[C@@H](O[C@H]2C[C@@](C)(OC)[C@@H](O)[C@H](C)O2)[C@H](C)[C@@H](O[C@@H]2O[C@H](C)C[C@H](N(C)C)[C@H]2O)[C@](C)(O)C[C@@H](C)CN(C)[C@H](C)[C@@H](O)[C@]1(C)O [Azithromycin] | 0.23
59 | CC1(C)S[C@@H]2[C@H](NC(=O)[C@H](NC(=O)N3CCNC3=O)c3ccccc3)C(=O)N2[C@H]1C(=O)O [Azlocillin] | 0.32
60 | C[C@H]1[C@H](NC(=O)/C(=N\OC(C)(C)C(=O)O)c2csc(N)n2)C(=O)N1S(=O)(=O)O [Aztreonam] | 0.58
61 | CCC(=O)OCC(=O)[C@@]1(OC(=O)CC)[C@@H](C)C[C@H]2[C@@H]3CCC4=CC(=O)C=C[C@]4(C)[C@@]3(Cl)[C@@H](O)C[C@@]21C [Beclomethasone dipropionate] | 0.87
62 | C[C@H]1C[C@H]2[C@@H]3CCC4=CC(=O)C=C[C@]4(C)[C@@]3(F)[C@@H](O)C[C@]2(C)[C@@]1(O)C(=O)CO [Betamethasone] | 0.66
63 | O=C(O)CCNC(=O)c1ccccc1 [Betamipron] | 0.83
64 | CC(C)NCC(O)COc1ccc(CCOCC2CC2)cc1 (stereo not drawn) [Betaxolol] | 0.56
65 | OC(CCN1CCCCC1)(c1ccccc1)C1CC2C=CC1C2 (stereo not drawn) [Biperiden] | 0.93

same assay, conditions: fraction bound to plasma protein; small molecule dataset, sheet 1-SM; ref Ingle et al.; cited from earlier work

Row | SMILES | PPB (fb)
66 | C#C[C@]1(O)CC[C@H]2[C@@H]3CCC4=CC(=NO)CC[C@@H]4[C@H]3CC[C@@]21CC (mixture of isomers) [norelgestromin] | 0.97

same assay, conditions: plasma; cited from earlier work

Row | SMILES | PPB (fb)
67 | C=CC1(O)CN2CCC1CC2C(O)c1ccnc2ccc(OC)cc12 (stereo not drawn) [3-Hydroxy Quinidine] | 0.6
68 | CC(=O)C1(O)CCC2C3CCC4=CC(=O)CCC4(C)C3CCC21C (stereo not drawn) [17-hydroxyprogesterone] | 0.85
69 | CN(C)Cc1nnc2n1-c1ccc(Cl)cc1C(c1ccccc1)=NC2 [Adinazolam] | 0.69
70 | Cc1nnc2n1-c1ccc(Cl)cc1C(c1ccccc1)=NC2 [Alprazolam] | 0.72
71 | CC1(C)S[C@@H]2[C@H](NC(=O)[C@H](N)c3ccccc3)C(=O)N2[C@H]1C(=O)O [Ampicillin] | 0.16
72 | Cc1cc(=O)n(-c2ccccc2)n1C [Antipyrine] | 0.07
